# Test results: patent US11007184B2, “Cancer treatments using combinations of type 2 MEK and ERK inhibitors” (BIOMED VALLEY DISCOVERIES, INC., priority 2013, dated 2021)
# pIC50: −log10 of the molar value.
# Legend:
# [1] = test system: RKO BRAF KO (+/−/−); test: Single agent proliferation assay (CellTiter-Glo, 72 h); assay type: cell-based
# [2] = test system: A375 Parental; test: as above; assay type: cell-based; settings: Homo sapiens, A-375
# [3] = test system: A375 NRAS (Q61K/+); test: as above; assay type: cell-based; settings: Homo sapiens, A-375
# [4] = test system: RKO Parental; test: as above; assay type: cell-based
# [5] = test system: HCT116 Parental; test: as above; assay type: cell-based; settings: Homo sapiens, HCT-116
# [6] = test system: HCT116 KRAS KO (+/−); test: as above; assay type: cell-based; settings: Homo sapiens, HCT-116
# [7] = test system: A375 cells; test: Dose escalation study; assay type: cell-based, human; settings: Month 2; for Dose escalation progress: A375 cells; for Concentration in which escalated cells were growing: single agent escalation
# From the text: Medium was refreshed every 3-4 days. […] Again, medium was refreshed every 3-4 days. The process was repeated as required (FIG. 19).
# [8] = test system: A375 cells escalated with dabrafenib + trametinib (Dab/Tram line)
# [9] = test system: A375 cells escalated with BVD-523 (BVD-523 line); test: Proliferation assay (Alamar Blue, 96 hours), dose escalation study; assay type: cell-based; settings: Homo sapiens, A-375, Month 3, growing in 1.2 μM BVD-523, read-out: Relative IC50
# [10] = test system: A375 cells; test: Combination study, 10×8 dose matrix, Alamar Blue and CellTiter-Glo, Bliss additivity model; assay type: cell-based, human; settings: single agent
# Description: Combinations were tested using a 10×8 dose matrix with a final DMSO concentration of 0.2%. A 96 hour assay incubation period followed, with subsequent addition of Alamar Blue 10% (v/v) and 4 hours incubation prior to reading on a fluorescent plate reader. After reading Alamar Blue, the medium/Alamar Blue mix was flicked off and 100 μl of CellTiter-Glo/PBS (1:1) added and the plates processed as per the manufacturer's instructions (Promega). Media only background values were subtracted before the data was analysed. The Bliss additivity model was then applied.
# In brief, predicted fractional inhibition values for combined inhibition were calculated using the equation Cbliss=A+B−(A×B) where A and B are the fractional inhibitions obtained by drug A alone or drug B alone at specific concentrations. Cbliss is the fractional inhibition that would be expected if the combination of the two drugs were exactly additive. Cbliss values are subtracted from the experimentally observed fractional inhibition values to give an ‘excess over Bliss’ value. Excess over Bliss values greater than 0 indicate synergy, whereas values less than 0 indicate antagonism. Excess over Bliss values are plotted as heat maps±SD.
# The single and combination data are also presented as dose-response curves generated in GraphPad Prism (plotted using % viability relative to DMSO only treated controls).
# [11] = test system: MAPK signaling in A375 and HCT116 cells; test: Western blot analysis of MAPK signaling; assay type: cell-based, human
# Description: For Western blot studies, HCT116 cells (5×10^6) were seeded into 10 cm dishes in McCoy's 5A plus 10% FBS. […] Cells were allowed to adhere overnight prior to addition of the indicated amount of test compound (BVD-523) or vehicle control. Cells were treated for either 4 or 24 hours before isolation of whole-cell protein lysates, as specified below. Cells were harvested by trypsinisation, pelleted and snap frozen. Lysates were prepared with RIPA (Radio-Immunoprecipitation Assay) buffer, clarified by centrifugation and quantitated by bicinchoninic acid assay (BCA) assay. 20-50 μg of protein was resolved by SDS-PAGE electrophoresis, blotted onto PVDF membrane and probed using the antibodies detailed in Table 14 (for the 4-hour treatment) and Table 15 (for the 24-hour treatment) below.
# [12] = test system: A375 cells; test: Focused combination study, Alamar Blue viability assay; assay type: cell-based, human; settings: with the lower concentrations of Sorafenib
# Description: (§1) Combinations were tested using a 10×8 dose matrix with a final DMSO concentration of 0.2%. A 96 hour assay incubation period followed, with subsequent addition of Alamar Blue 10% (v/v) and 4 hours incubation prior to reading on a fluorescent plate reader. After reading Alamar Blue, the medium/Alamar Blue mix was flicked off and 100 μl of CellTiter-Glo/PBS (1:1) added and the plates processed as per the manufacturer's instructions (Promega). Media only background values were subtracted before the data was analysed. The Bliss additivity model was then applied. In brief, predicted fractional inhibition values for combined inhibition were calculated using the equation […]) where A and B are the fractional inhibitions obtained by drug A alone or drug B alone at specific concentrations. Cbliss is the fractional inhibition that would be expected if the combination of the two drugs were exactly additive. Cbliss values are subtracted from the experimentally observed fractional inhibition values to give an 'excess over Bliss' value. […] Excess over Bliss values are plotted as heat maps±SD. For focused combination studies, the Alamar Blue viability assays were performed as described above for combination studies. Additionally, Caspase-Glo 3/7 assays were performed. In brief, HCT116 cells were seeded in triplicate in white 96-well plates at a cell density of 5000 cells/well in McCoy's 5A plus 10% FBS. A375 cells were seeded at a density of 5000 cells/well in DMEM plus 10% FBS. […] The final concentration of DMSO was 0.2%, and 800 nM staurosporine was included as a positive control. 24 and 48 hour assay incubation periods were used. Then, Caspase-Glo® 3/7 50% (v/v) was added, plates were mixed for 5 minutes on an orbital shaker and incubated for 1 hour at room temperature prior to reading on a luminescent plate reader. Media only background values were subtracted before the data was analysed.
# [13] = test system: HCT116 cells; test: as above; assay type: cell-based, human
# Description: as §1
Compound,pIC50 [3],pIC50 [6],pIC50 [1],pIC50 [2],pIC50 [4],pIC50 [5],Dose escalation progress [7],Concentration in which escalated cells were growing [7] [× parental cell IC50],pIC50 [8],pIC50 [9],"Sensitivity of A375 cells, which carry a BRAF (V600E) mutation [10]","Concentrations required to induce changes in substrate phosphorylation and effector targets of ERK kinases ([11]; RAF and RAS mutant cancer cells in-vitro, acute and prolonged treatment)",RSK1/2 phosphorylation at residues strictly dependent on ERK (T359/5363) ([11]; following BVD-523 treatment),Cellular ERK enzyme activity ([11]; following either acute or prolonged treatment),Combination interaction with Sorafenib [12],Combination interaction with AZ628 [13],Combination interaction with Sorafenib ([13]; Trametinib: with higher concentrations of Sorafenib)
O=C(Nc1ccc2[nH]nc(-c3ccncc3)c2c1)[C@@H]1CCN(CC(=O)N2CCN(c3ccc(-c4ncccn4)cc3)CC2)C1 [SCH772984],7.10,6.85,6.90,7.37,6.90,6.94,–,–,–,–,–,–,–,–,–,–,–
"CC(C)(C)c1nc(-c2cccc(NS(=O)(=O)c3c(F)cccc3F)c2F)c(-c2ccnc(N)n2)s1 [Dabrafenib, dabrafenib]",–,–,–,–,–,–,quickest,100,7.24,7.74,sensitive,–,–,–,–,–,–
Cn1cnc2c(F)c(Nc3ccc(Br)cc3F)c(C(=O)NOCCO)cc21 [MEK-162],7.48,6.95,7.64,7.64,6.68,6.94,–,–,–,–,–,–,–,–,–,–,–
CC(=O)O[C@H]1C(=O)[C@@]2(C)[C@H]([C@H](OC(=O)c3ccccc3)[C@]3(O)C[C@H](OC(=O)[C@H](O)[C@@H](NC(=O)c4ccccc4)c4ccccc4)C(C)=C1C3(C)C)[C@]1(OC(C)=O)CO[C@@H]1C[C@@H]2O [Paclitaxel],8.22,–,–,–,–,–,–,–,–,–,–,–,–,–,–,–,–
O=C(c1ccc(F)c(F)c1Nc1ccc(I)cc1F)N1CC(O)([C@@H]2CCCCN2)C1 [GDC-0973],8.52,7.21,7.51,8.70,7.40,7.05,–,–,–,–,–,–,–,–,–,–,–
CC(C)Nc1cc(-c2c[nH]c(C(=O)N[C@H](CO)c3cccc(Cl)c3)c2)c(Cl)cn1 [BVD-523],–,6.50,6.12,–,6.21,6.59,progressed more slowly,–,–,–,–,low micromolar range,reduced phosphorylation,fully inhibited,window of synergy,windows of synergy,windows of synergy

# More lines, main results first:
pIC50 [3],pIC50 [6],Compound,pIC50 [1],pIC50 [2],pIC50 [4],pIC50 [5],Dose escalation progress [7],Concentration in which escalated cells were growing [7] [× parental cell IC50],pIC50 [8],pIC50 [9],"Sensitivity of A375 cells, which carry a BRAF (V600E) mutation [10]","Concentrations required to induce changes in substrate phosphorylation and effector targets of ERK kinases ([11]; RAF and RAS mutant cancer cells in-vitro, acute and prolonged treatment)",RSK1/2 phosphorylation at residues strictly dependent on ERK (T359/5363) ([11]; following BVD-523 treatment),Cellular ERK enzyme activity ([11]; following either acute or prolonged treatment),Combination interaction with Sorafenib [12],Combination interaction with AZ628 [13],Combination interaction with Sorafenib ([13]; Trametinib: with higher concentrations of Sorafenib)
8.00,7.54,O=C(NOCCO)c1ccc2cncn2c1Nc1ccc(I)cc1F [GDC-0623],8.30,8.10,7.49,7.51,–,–,–,–,–,–,–,–,–,–,–
–,8.22,"CC(=O)Nc1cccc(-n2c(=O)n(C3CC3)c(=O)c3c(Nc4ccc(I)cc4F)n(C)c(=O)c(C)c32)c1 [Trametinib, trametinib]",8.52,9.52,8.10,8.15,–,100,–,8.77,–,–,–,–,–,–,–
